Assay results published in US20240254138A1, “TRICYCLIC PYRIMIDINES AS CYCLIN-DEPENDENT KINASE 7 (CDK7) INHIBITORS” (JANSSEN PHARMACEUTICA NV, priority 2021, published 2024).
Like-named read-outs stand apart in the source and are kept apart here.

Legend:
[1] = test system: RNA Polymerase II Serine 5 phosphorylation in A549 cells overexpressing CDK7-mutant (C312S); test: Imaging-based cellular RNA PolII Ser5 phosphorylation assay in A549 cells overexpressing CDK7-mutant (C312S); type: cell-based, human; conditions: RNA PolII Ser5 phosphorylation, averaged over all measurements; for IC50: Homo sapiens, A549, A549 cells overexpressing CDK7-mutant (C312S), read-out: CDK7_A549 mutant hCDK7(pIC50) (converted); for CDK7_A549 mutant hCDK7(pIC50): A549 cells overexpressing CDK7-mutant (C312S)
In short: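 A549 cells overexpressing CDK7 C312S (with endogenous wild-type CDK7) were treated with compound for 3 h at 37 °C in 1% FBS medium. Phospho-Rpb1 CTD Ser5 was immunostained after fixation and imaged. IC50 came from curve fit of % control, normalised to DMSO and 10 μM reference-compound controls.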

[2] = test system: RNA Polymerase II Serine 5 phosphorylation (Rpb1 CTD, downstream substrate of CDK7) in A549 cells; test: Imaging-based cellular RNA PolII Ser5 phosphorylation assay in A549 cells; type: cell-based, human; conditions: wild-type CDK7, RNA PolII Ser5 phosphorylation, averaged over all measurements; for IC50: Homo sapiens, A549, A549 cells, read-out: CDK7_A549 Wild-type CDK7 (pIC50) (converted); for CDK7_A549 Wild-type CDK7 (pIC50): A549 cells
In short: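 A549 cells, seeded 1000/well in DMEM with 1% FBS and cultured 20 h, were treated with compound for 3 h at 37 °C. Ser5-phospho-Rpb1 CTD detected by immunofluorescence imaging after fixation and methanol permeabilization; IC50 from curve fit normalized to DMSO and 10 μM reference-compound controls.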

[3] = target: CDK7/cyclinH/MAT1 trimeric complex (Homo sapiens, UniProt P50613); test: In vitro CDK7 assay, potency of irreversible covalent inhibitors (kinact/KI), coupled PK/LDH ADP readout at 340 nm
[4] = CDK7 (20 nM enz.) (KI, μM), 20 nM enzyme
[5] = read-out: CDK7 (20 nM enz.) (kinact, s^−1), 20 nM enzyme
[6] = read-out: CDK7 (20 nM enz.) (kinact/KI, M^−1*s^−1), 20 nM enzyme
[7] = CDK7 (KI(μM)), […], 1 mM ATP, room temperature, averaged values over all measurements
[8] = read-out: CDK7 (kinact, s^−1), kinact = maximal rate of inactivation, 1 mM ATP, room temperature, averaged values over all measurements
[9] = read-out: CDK7 (kinact/KI, M^−1*s^−1), potency of irreversible covalent inhibitors, 1 mM ATP, room temperature, averaged values over all measurements
[10] = read-out: CDK7 (20 nM enz.) (kobs/[I], M^−1*s^−1), 20 nM enzyme

Sequence of CDK7/cyclinH/MAT1 trimeric complex (P50613 whole entry): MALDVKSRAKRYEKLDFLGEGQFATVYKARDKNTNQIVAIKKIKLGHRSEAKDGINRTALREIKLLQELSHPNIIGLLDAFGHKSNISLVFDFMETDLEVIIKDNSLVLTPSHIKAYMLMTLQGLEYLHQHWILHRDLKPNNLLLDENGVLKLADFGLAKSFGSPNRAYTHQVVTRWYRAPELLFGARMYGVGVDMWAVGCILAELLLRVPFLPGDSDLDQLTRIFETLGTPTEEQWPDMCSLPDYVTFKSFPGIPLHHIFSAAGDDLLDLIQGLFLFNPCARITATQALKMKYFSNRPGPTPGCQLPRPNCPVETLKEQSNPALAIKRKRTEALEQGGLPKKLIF
Sequence of CDK7/cyclinH/MAT1 trimeric complex (P51946 whole entry partner): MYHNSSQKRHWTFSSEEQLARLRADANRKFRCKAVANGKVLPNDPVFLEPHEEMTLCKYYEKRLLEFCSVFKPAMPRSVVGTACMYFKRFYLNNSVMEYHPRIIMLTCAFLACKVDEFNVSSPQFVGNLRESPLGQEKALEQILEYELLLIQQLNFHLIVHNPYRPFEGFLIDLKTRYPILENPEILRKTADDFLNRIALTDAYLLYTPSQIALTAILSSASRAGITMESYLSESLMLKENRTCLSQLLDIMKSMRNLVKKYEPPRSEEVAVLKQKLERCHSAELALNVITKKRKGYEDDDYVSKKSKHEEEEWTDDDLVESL
Sequence of CDK7/cyclinH/MAT1 trimeric complex (P51948 whole entry partner): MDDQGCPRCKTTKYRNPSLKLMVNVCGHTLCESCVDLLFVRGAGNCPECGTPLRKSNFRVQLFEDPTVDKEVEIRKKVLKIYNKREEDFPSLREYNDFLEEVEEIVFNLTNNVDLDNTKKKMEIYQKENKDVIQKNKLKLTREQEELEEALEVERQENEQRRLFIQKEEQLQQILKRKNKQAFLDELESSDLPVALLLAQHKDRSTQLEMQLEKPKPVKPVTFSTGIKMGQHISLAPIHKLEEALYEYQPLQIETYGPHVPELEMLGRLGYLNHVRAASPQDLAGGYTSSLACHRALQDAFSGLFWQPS

| SMILES | IC50 [1] | IC50 [2] | Ki [3, 4] | kinact [3, 5] | kinact/KI [3, 6] | also measured |
| --- | --- | --- | --- | --- | --- | --- |
| C=CC(=O)N1CC(N2CCC[C@@H](c3ccc4c(c3)Nc3nccc(N5CCOCC5)c3CO4)C2)C1 (single isomer, unassigned) [Compound 145] | > 10000 nM | 977 nM | 0.872 µM | 7.9e-05 s⁻¹ | 90.6 M⁻¹ s⁻¹ |  |
| CC#CC(=O)N1CC[C@H](N2CC(c3cc(C)c4c(c3)Nc3nccc(C5CCOCC5)c3CO4)C2)C1 (single isomer, unassigned) [Compound 305] | > 10000 nM | 240 nM | 0.0839 µM | 2.97e-05 s⁻¹ | 354 M⁻¹ s⁻¹ |  |
| C=CC(=O)N1CCC(N2CC(c3cc4c(c(C5CC5)n3)O[C@@H](C)c3c(N5CCOCC5)ccnc3N4)C2)CC1 (single isomer, unassigned) [Compound 375] | > 10000 nM | 1290 nM | 2.12 µM | 2.58e-05 s⁻¹ | 12.2 M⁻¹ s⁻¹ |  |
| C=CC(=O)N1CC(N2CC(c3cc4c(c(C)n3)OCc3c(N5CCOCC5)ccnc3N4)C2)C1 [Compound 205] | > 10000 nM | 93.3 nM | 0.119 µM | 4.74e-05 s⁻¹ |  | CDK7 (20 nM enz.) (kinact/KI, M^−1*s^−1) ([3]; 20 nM enzyme): 399.588 M⁻¹ s⁻¹ |
| C=CC(=O)N1CC[C@@H](N2CC(c3cc(C)c4c(c3)Nc3nccc(-c5cnn(C)c5)c3CO4)C2)C1 (single isomer, unassigned) [Compound 362] | 10000 nM | 58.9 nM | 0.0325 µM | 6.59e-05 s⁻¹ | 2030 M⁻¹ s⁻¹ |  |
| C=CC(=O)N1CC[C@H](N2CC(c3cc4c(c(C(F)(F)F)n3)O[C@@H](C)c3c(N5CCOCC5)ccnc3N4)C2)C1 (single isomer, unassigned) [Compound 500] | > 10000 nM | 1200 nM |  |  | 12.7 M⁻¹ s⁻¹ |  |
| O=C(/C=C/CN1CCOCC1)N1CC(N2CCC(c3ccc4c(c3)Nc3nccc(N5CCOCC5)c3CO4)CC2)C1 [Compound 57] | > 3980 nM | 1200 nM |  |  |  | Ki [3, 7]: 0.248 µM; kinact [3, 8]: 0.000129 s⁻¹; kinact/KI [3, 9]: 518 M⁻¹ s⁻¹ |
| C=CC(=O)N1CCC(c2ccc3c(c2)OCc2c(N4CCOCC4)ccnc2N3)C1 (stereo not shown) [Compound 55] | > 10000 nM | > 10000 nM |  |  |  | kinact/KI [3, 9]: 2.45 M⁻¹ s⁻¹ |
| C#Cc1cc(C2CCN(C3CN(C(=O)C=C)C3)CC2)cc2c1O[C@@H](C)c1c(N3CCOCC3)ccnc1N2 (single isomer, unassigned) [Compound 258] | 6460 nM | 21.4 nM |  |  |  | kinact/KI [3, 10]: 619 M⁻¹ s⁻¹ |
| C=CC(=O)N1CCC(N2CC(c3cc4c(c(C(F)(F)F)c3)OCc3c(N5CCOCC5)ccnc3N4)C2)CC1 [Compound 111] | 4170 nM | 45.7 nM |  |  |  | kinact/KI [3, 10]: 622 M⁻¹ s⁻¹ |
| C=CC(=O)N1CC(N2CCC(c3cc(F)c4c(c3)Nc3nccc(N5CCOCC5)c3CO4)CC2)C1 [Compound 62] | > 10000 nM | 77.6 nM | 0.0266 µM | 6.42e-05 s⁻¹ | 2410 M⁻¹ s⁻¹ |  |
| C=CC(=O)N1CC[C@H](N2CC(c3cc(C#N)c4c(c3)Nc3nccc(N5CCOCC5)c3[C@H](C)O4)C2)C1 (single isomer, unassigned) [Compound 460] | > 10000 nM | 1290 nM |  |  | 14.4 M⁻¹ s⁻¹ |  |
| C=CC(=O)N1CC[C@H](N2CC(c3cc4c(c(C(F)(F)F)n3)OCc3c(N5CCOCC5)ccnc3N4)C2)C1 (single isomer, unassigned) [Compound 404] |  |  |  |  |  | CDK7_A549 mutant hCDK7(pIC50) [1]: 5.09; CDK7_A549 Wild-type CDK7 (pIC50) [2]: 7.13; CDK7 (20 nM enz.) (kobs/[I], M^−1*s^−1) ([3]; 20 nM enzyme): 1280.59 M⁻¹ s⁻¹ |
| Cc1nc(C2CCN(C3CN(C(=O)/C=C/CN(C)C)C3)CC2)cc2c1OCc1c(-c3cnn(C)c3)ccnc1N2 [Compound 540] | > 10000 nM | 550 nM | 0.0301 µM | 7.15e-05 s⁻¹ | 2310 M⁻¹ s⁻¹ |  |
| C=CC(=O)N1CC[C@@H](N2CC(c3cc(C)c4c(c3)Nc3nccc(C5CCOCC5)c3CO4)C2)C1 (single isomer, unassigned) [Compound 196] | > 3980 nM | 105 nM | 0.0924 µM | 4.58e-05 s⁻¹ | 496 M⁻¹ s⁻¹ |  |
| C=CC(=O)N1CC(N2CCC(O)(c3cc(C)c4c(c3)Nc3nccc(N5CCOCC5)c3CO4)CC2)C1 [Compound 140] | > 10000 nM | 117 nM | 0.0741 µM | 6.51e-05 s⁻¹ | 878 M⁻¹ s⁻¹ |  |
| CC#CC(=O)N1CC(N2CC[C@@H](c3cc4c(c(C)n3)OCc3c(N5CCOCC5)ccnc3N4)C2)C1 (single isomer, unassigned) [Compound 386] | > 10000 nM | 1620 nM | 0.399 µM | 1.64e-05 s⁻¹ | 41.1 M⁻¹ s⁻¹ |  |

| SMILES | IC50 [1] | IC50 [2] | Ki [3, 4] | kinact [3, 5] | kinact/KI [3, 6] | also measured |
| --- | --- | --- | --- | --- | --- | --- |
| CC#CC(=O)N1CC(n2cc(-c3cc4c(c(C)n3)OC(C)c3c(N5CCOCC5)ccnc3N4)cn2)C1 (stereo not shown) [Compound 380] | > 10000 nM | 162 nM | 0.241 µM | 4.27e-05 s⁻¹ | 177 M⁻¹ s⁻¹ |  |
| C=CC(=O)N1CC[C@H](N2CC(c3cc4c(c(C(F)(F)F)n3)OCc3c(N5CCOCC5)ccnc3N4)C2)C1 (single isomer, unassigned) [Compound 234] | 8510 nM | 95.5 nM |  |  |  | CDK7 (20 nM enz.) (kobs/[I], M^−1*s^−1) ([3]; 20 nM enzyme): 610.385 M⁻¹ s⁻¹ |
| C=CC(=O)N1CCC(N2CC(c3cc4c(c(C#N)n3)OCc3c(N5CCOCC5)ccnc3N4)C2)CC1 [Compound 384] | 5130 nM | 355 nM | 0.03 µM | 7.49e-06 s⁻¹ | 249 M⁻¹ s⁻¹ |  |
| C=CC(=O)N1CC(N2CCC(c3ccc4c(c3)Nc3nccc(N5CCOC6(CCOCC6)C5)c3CO4)CC2)C1 [Compound 47] | > 10000 nM | 871 nM |  |  |  | Ki [3, 7]: 0.207 µM; kinact [3, 8]: 0.000125 s⁻¹; kinact/KI [3, 9]: 605 M⁻¹ s⁻¹ |
| C=CC(=O)N1CC(N2CCC(c3cc(Br)c4c(c3)Nc3nccc(C5CCOCC5)c3CO4)CC2)C1 [Compound 82] | 7940 nM | 46.8 nM |  |  |  | kinact/KI [3, 10]: 1570 M⁻¹ s⁻¹ |
| CC#CC(=O)N1CC(N2CC(c3cc4c(c(CCC)n3)OCc3c(N5CCOCC5)ccnc3N4)C2)C1 [Compound 368] | > 10000 nM | 191 nM | 0.103 µM | 4.43e-05 s⁻¹ | 429 M⁻¹ s⁻¹ |  |
| C=CC(=O)N1CCC2(CC1)CC(Cc1ccc3c(c1)Nc1nccc(C4CCOCC4)c1CO3)C2 [Compound 64] | > 10000 nM | > 10000 nM | 0.445 µM | 1.43e-05 s⁻¹ | 32 M⁻¹ s⁻¹ |  |
| C=CC(=O)N1CC(N2CC(c3cc(C)c4c(c3)Nc3nccc(C5CCOCC5)c3[C@@H](C)O4)C2)C1 (single isomer, unassigned) [Compound 251] | > 10000 nM | 43.7 nM |  |  |  | kinact/KI [3, 10]: 1110 M⁻¹ s⁻¹ |
| C=CC(=O)N1CC(c2ccc(-c3ccc4c(c3)Nc3nccc(N5CCOCC5)c3CO4)cn2)C1 [Compound 43] | > 10000 nM | 339 nM |  |  |  | Ki [3, 7]: 0.0497 µM; kinact [3, 8]: 5.46e-05 s⁻¹; kinact/KI [3, 9]: 1100 M⁻¹ s⁻¹ |
| C=CC(=O)N1CC(c2ccnc(-c3ccc4c(c3)Nc3nccc(N5CCOCC5)c3CO4)c2)C1 [Compound 61] | > 10000 nM | 1620 nM | 1.32 µM | 4.84e-05 s⁻¹ | 36.6 M⁻¹ s⁻¹ |  |
| C=CC(=O)N1CC(N2CC(c3cc4c(c(C5CC5)n3)OCc3c(N5CCOCC5)ccnc3N4)C2)C1 [Compound 317] | > 10000 nM | 60.3 nM |  |  |  | kinact/KI [3, 10]: 1060 M⁻¹ s⁻¹ |
| C=CC(=O)N1CCC(N2CCC(c3cc4c(c(C)n3)O[C@H](C)c3c(N5CCOCC5)ccnc3N4)CC2)CC1 (single isomer, unassigned) [Compound 406] | 1820 nM | ~9.77 nM | 0.495 µM | 0.000181 s⁻¹ | 366 M⁻¹ s⁻¹ |  |
| C=CC(=O)N1CC(n2cc(-c3cc(C#N)c4c(c3)Nc3nccc(N5CCOCC5)c3CO4)cn2)C1 [Compound 285] | 1860 nM | 19.5 nM |  |  |  | kinact/KI [3, 10]: 964 M⁻¹ s⁻¹ |
| C=CC(=O)N1CC(N2CCC(c3cc(C)c4c(c3)Nc3nccc(C5CCOCC5)c3CO4)CC2)C1 [Compound 59] |  | 72.4 nM |  |  | 1480 M⁻¹ s⁻¹ | CDK7_A549 mutant hCDK7(pIC50) [1]: <5.4 |
| C=CC(=O)N1CC[C@H](N2CC(c3cc4c(c(C(F)(F)F)n3)O[C@H](C)c3c(N5CCOCC5)ccnc3N4)C2)C1 (single isomer, unassigned) [Compound 501] | > 10000 nM |  | 2.35 µM | 3.59e-05 s⁻¹ |  | CDK7_A549 Wild-type CDK7 (pIC50) [2]: 5.78; CDK7 (20 nM enz.) (kinact/KI, M^−1*s^−1) ([3]; 20 nM enzyme): 15.2689 M⁻¹ s⁻¹ |
| C=CC(=O)N1CC[C@H](N2CC(c3cc4c(c(C#N)n3)O[C@H](C)c3c(N5CCOCC5)ccnc3N4)C2)C1 (single isomer, unassigned) [Compound 507] | 8130 nM | 110 nM |  |  |  | kinact/KI [3, 10]: 389 M⁻¹ s⁻¹ |
